According to ChEMBL document CHEMBL1150742, “Verrucofortine, a major metabolite of Penicillium verrucosum var. cyclopium, the fungus that produces the mycotoxin verrucosidin” (J Nat Prod, 1988):

Experiments:
Conditions in all cases: in vivo
Mus musculus [1] = test: Neurotoxicity in mouse assessed as labored breathing at 160 mg/kg, ip; assay type: toxicity, organism-based; set-up: dose 160 mg/kg, route intraperitoneal
Mus musculus [2] = test: Neurotoxicity in mouse assessed as ataxia at 160 mg/kg, ip; assay type: toxicity, organism-based; set-up: dose 160 mg/kg, route intraperitoneal
Mus musculus [3] = test: Neurotoxicity in mouse assessed as distress at 160 mg/kg, ip; assay type: toxicity, organism-based; set-up: dose 160 mg/kg, route intraperitoneal
Mus musculus [4] = test: Neurotoxicity in mouse assessed as tremorgenic activity at 160 mg/kg, ip; assay type: toxicity, organism-based; set-up: dose 160 mg/kg, route intraperitoneal
[5] = Toxicity in ip dosed mouse; assay type: organism-based

Structure (SMILES)	Activity (Mus musculus [1])	Activity (Mus musculus [2])	Activity (Mus musculus [3])	Activity (Mus musculus [4])	LD50 [5] [mg/kg]
C=CC(C)(C)[C@@]12C[C@H]3C(=O)N[C@H](CC(C)C)C(=O)N3[C@H]1N(C(C)=O)c1ccccc12 [VERRUCOFORTINE]	Non-toxic	Non-toxic	Non-toxic	Non-toxic	–
COc1c(C)c([C@]2(C)O[C@H]2/C(C)=C/C(C)=C/[C@]2(C)O[C@H](C)[C@@]3(C)O[C@H]32)oc(=O)c1C [VERRUCOSIDIN]	–	–	–	–	4
